Test results as given in ChEMBL document CHEMBL1201862, “PubChem BioAssay data set” (2004).
Calls of active or inactive are those of the source.

Experiments:
[1] = molecular target: Peroxisome proliferator-activated receptor gamma/Nuclear receptor coactivator 2 (Homo sapiens, UniProt P37231); format: functional;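 note: agonist potency for raising coactivator recruitment to the receptor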
[2] = molecular target: Peroxisome proliferator-activated receptor gamma/Nuclear receptor coactivator 3 (Homo sapiens, UniProt P37231); format: functional;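 note: agonist potency for raising coactivator recruitment to the receptor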
[3] = molecular target: Peroxisome proliferator-activated receptor gamma/Nuclear receptor coactivator 1 (Homo sapiens, UniProt P37231); format: functional;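 note: agonist potency as compounds enhance coactivator SRC-1 recruitment to PPARgamma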
[4] = molecular target: Acyl-homoserine lactone acylase PvdQ (Pseudomonas aeruginosa (strain LESB58), UniProt Q9I194); experiment: P. aeruginosa PvdQ acylase inhibitors, dose response, biochemical, fluorescence, plate reader and imaging, cherry-picks (AID 493231)
HEK293 [5] = experiment: cells; format: functional, cell-based; conditions: Homo sapiens
[6] = A Cell Based Secondary Assay To Explore Cytotoxicity of Compounds that Sensitize Mycobacterium Tuberculosis to Beta-Lactam Antibiotics.; format: functional
HEK293 [7] = experiment: cells; format: functional, cell-based; conditions: Homo sapiens; remark: listed apart in the source
Vero [8] = experiment: cells; format: functional; conditions: Chlorocebus sabaeus
HEK293 [9] = experiment: NOD2 signaling inhibitors in MDP-stimulated cells, cell-based, uHTS, luminescence (AID 2001); format: functional; conditions: Homo sapiens
Vero [10] = experiment: cells; format: functional, cell-based; conditions: Chlorocebus sabaeus
Vero [11] = experiment: host cell cytotoxicity of antiviral hits, dose response, cytotoxicity control for West Nile virus antiviral project, secondary assay (AID 1650); format: functional; conditions: Chlorocebus sabaeus
HEK293 [12] = experiment: NOD1 signaling inhibitors, primary screen, cell-based, luminescence, uHTS (AID 1578); format: functional; conditions: Homo sapiens
[13] = M. tuberculosis H37Rv growth inhibitors, H37Rv strain (AID 1626); format: functional
Beta-galactosidase = Beta-galactosidase (Escherichia coli, UniProt Q8VNN2); experiment: PubChem AID 485352; format: functional
[14] = molecular target: T1, Type-1 angiotensin II receptor (Homo sapiens, UniProt P30556); experiment: AT1 receptor antagonists, dose response, selectivity assay for APJ receptor antagonist project, cell-based, uHTS hits (AID 463214); format: functional;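 note: antagonist potency against angiotensin II stimulated AT1 response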
T1 sequence (P30556 whole entry): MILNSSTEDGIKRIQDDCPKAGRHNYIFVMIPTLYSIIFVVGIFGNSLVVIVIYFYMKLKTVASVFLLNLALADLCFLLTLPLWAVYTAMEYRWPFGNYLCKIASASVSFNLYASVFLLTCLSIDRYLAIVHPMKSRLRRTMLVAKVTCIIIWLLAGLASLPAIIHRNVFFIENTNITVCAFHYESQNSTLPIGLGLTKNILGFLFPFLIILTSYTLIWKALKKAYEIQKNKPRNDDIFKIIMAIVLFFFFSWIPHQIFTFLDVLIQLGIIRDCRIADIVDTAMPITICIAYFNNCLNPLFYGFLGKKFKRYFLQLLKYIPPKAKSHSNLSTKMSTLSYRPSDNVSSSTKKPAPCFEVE

[15] = HIV-1 Env-mediated cell fusion inhibitors, dose response, CCR5-tropic Env (AID 2279); format: functional
[16] = molecular target: DNA dC->dU-editing enzyme APOBEC-3A (Homo sapiens, UniProt P31941); experiment: APOBEC3A DNA deaminase inhibitors, dose response, biochemical (AID 504722); format: functional
[17] = molecular target: T2, Rac GTPase-activating protein 1 (Homo sapiens, UniProt Q9H0H5); experiment: MgcRacGAP GTPase-activating activity inhibitors, confirmation, biochemical, ADP Hunter fluorescence, primary and confirmatory (AID 624330); format: functional
T2 sequence (Q9H0H5 whole entry): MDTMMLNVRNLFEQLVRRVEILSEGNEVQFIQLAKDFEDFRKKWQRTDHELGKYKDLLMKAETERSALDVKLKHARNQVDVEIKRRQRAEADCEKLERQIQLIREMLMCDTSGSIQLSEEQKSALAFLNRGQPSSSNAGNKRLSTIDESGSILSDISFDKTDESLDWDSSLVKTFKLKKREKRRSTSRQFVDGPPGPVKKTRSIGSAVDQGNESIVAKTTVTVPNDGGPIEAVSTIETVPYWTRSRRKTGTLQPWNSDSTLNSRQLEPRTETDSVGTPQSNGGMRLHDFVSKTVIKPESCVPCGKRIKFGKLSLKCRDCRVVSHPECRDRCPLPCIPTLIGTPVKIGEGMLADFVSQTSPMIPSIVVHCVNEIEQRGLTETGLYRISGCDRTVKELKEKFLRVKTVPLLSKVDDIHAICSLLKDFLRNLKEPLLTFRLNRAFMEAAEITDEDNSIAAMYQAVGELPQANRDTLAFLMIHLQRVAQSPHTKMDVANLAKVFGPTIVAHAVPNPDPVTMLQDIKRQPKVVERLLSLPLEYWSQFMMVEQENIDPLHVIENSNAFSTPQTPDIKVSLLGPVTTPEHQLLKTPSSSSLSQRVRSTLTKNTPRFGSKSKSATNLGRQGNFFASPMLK

[18] = molecular target: DNA dC->dU-editing enzyme APOBEC-3G (Homo sapiens, UniProt Q9HC16); experiment: Dose Response confirmation of small molecule APOBEC3G DNA Deaminase Inhibitors via a fluorescence-based single-stranded DNA deaminase assay. [Related pubchem assays (depositor defined):AID493012, AID493028]; format: functional

Acyl-homoserine lactone acylase PvdQ, sequence (Q9I194 24-193 limits assumed): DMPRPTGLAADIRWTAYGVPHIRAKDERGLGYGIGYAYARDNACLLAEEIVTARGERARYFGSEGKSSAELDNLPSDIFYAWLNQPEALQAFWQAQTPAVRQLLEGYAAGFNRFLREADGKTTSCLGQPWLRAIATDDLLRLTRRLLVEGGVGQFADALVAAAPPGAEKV
Acyl-homoserine lactone acylase PvdQ, sequence (Q9I194 217-762 limits assumed): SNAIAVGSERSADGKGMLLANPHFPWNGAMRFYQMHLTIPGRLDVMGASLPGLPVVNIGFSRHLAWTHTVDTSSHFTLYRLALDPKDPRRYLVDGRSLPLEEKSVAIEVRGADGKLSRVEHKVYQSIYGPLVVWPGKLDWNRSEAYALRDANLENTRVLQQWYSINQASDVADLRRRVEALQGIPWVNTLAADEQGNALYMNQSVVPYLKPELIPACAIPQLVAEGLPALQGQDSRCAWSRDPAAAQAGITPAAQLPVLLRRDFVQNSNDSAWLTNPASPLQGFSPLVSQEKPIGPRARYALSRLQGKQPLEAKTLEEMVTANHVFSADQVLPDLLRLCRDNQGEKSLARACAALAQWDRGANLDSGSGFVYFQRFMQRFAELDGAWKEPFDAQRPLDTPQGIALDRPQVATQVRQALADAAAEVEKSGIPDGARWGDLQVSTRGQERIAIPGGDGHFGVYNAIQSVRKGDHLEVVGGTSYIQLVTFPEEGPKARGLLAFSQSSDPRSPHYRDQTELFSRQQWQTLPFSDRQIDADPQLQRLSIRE
Peroxisome proliferator-activated receptor gamma/Nuclear receptor coactivator 2, sequence (P37231 whole entry): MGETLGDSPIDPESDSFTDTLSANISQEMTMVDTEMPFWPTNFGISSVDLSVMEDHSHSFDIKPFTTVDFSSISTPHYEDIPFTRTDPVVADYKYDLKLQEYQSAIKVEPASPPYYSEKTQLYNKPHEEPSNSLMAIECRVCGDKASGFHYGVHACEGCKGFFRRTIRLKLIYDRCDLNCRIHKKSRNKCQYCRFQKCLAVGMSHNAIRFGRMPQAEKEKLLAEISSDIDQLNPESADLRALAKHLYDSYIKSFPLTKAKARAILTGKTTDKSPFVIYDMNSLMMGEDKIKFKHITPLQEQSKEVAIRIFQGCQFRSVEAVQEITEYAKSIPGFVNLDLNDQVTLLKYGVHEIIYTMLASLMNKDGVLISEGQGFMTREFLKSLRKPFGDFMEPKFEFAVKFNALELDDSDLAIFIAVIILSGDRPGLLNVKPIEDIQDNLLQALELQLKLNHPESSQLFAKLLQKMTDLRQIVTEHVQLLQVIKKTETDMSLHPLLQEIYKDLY
Peroxisome proliferator-activated receptor gamma/Nuclear receptor coactivator 2, sequence (Q15596 whole entry, further chain): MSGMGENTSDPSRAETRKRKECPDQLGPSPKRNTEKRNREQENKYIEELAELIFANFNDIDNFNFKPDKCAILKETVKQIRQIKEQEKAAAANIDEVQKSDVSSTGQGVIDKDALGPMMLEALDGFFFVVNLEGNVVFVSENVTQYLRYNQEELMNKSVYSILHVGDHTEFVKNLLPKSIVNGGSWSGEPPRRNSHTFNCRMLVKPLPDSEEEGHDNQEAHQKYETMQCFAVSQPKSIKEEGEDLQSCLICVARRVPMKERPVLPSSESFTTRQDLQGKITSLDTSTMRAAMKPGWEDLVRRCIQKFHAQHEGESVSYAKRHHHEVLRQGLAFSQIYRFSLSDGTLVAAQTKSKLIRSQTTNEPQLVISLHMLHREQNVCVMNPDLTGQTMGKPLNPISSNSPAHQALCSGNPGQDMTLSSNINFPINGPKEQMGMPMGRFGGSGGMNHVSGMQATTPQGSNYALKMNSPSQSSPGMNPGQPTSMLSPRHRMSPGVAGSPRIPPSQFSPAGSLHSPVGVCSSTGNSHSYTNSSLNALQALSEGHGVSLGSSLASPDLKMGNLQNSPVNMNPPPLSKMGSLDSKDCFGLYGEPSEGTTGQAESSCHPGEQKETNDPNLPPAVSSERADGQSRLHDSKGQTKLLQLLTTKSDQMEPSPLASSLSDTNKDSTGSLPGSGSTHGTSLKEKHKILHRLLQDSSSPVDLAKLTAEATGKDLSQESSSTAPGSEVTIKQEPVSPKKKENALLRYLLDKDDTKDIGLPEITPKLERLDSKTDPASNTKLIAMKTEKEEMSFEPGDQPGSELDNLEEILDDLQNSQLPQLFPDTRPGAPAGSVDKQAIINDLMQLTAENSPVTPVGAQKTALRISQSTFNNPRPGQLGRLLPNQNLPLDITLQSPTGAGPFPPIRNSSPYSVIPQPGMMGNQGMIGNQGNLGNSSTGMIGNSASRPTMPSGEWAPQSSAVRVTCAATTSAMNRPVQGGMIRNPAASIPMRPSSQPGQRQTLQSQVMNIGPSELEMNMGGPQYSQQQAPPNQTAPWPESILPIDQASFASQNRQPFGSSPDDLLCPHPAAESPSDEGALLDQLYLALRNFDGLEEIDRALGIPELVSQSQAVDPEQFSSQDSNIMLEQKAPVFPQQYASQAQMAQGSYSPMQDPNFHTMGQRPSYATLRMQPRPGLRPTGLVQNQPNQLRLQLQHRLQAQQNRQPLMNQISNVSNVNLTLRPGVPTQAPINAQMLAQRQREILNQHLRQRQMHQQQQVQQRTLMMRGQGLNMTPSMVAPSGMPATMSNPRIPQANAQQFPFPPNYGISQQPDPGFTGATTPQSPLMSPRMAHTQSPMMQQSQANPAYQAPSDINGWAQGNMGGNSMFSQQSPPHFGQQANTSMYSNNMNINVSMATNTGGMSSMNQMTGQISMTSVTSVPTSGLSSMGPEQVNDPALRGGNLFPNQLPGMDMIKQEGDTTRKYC
Peroxisome proliferator-activated receptor gamma/Nuclear receptor coactivator 3, sequence (P37231 whole entry): as the sequence (P37231 whole entry) above
Peroxisome proliferator-activated receptor gamma/Nuclear receptor coactivator 3, sequence (Q9Y6Q9 whole entry, further chain): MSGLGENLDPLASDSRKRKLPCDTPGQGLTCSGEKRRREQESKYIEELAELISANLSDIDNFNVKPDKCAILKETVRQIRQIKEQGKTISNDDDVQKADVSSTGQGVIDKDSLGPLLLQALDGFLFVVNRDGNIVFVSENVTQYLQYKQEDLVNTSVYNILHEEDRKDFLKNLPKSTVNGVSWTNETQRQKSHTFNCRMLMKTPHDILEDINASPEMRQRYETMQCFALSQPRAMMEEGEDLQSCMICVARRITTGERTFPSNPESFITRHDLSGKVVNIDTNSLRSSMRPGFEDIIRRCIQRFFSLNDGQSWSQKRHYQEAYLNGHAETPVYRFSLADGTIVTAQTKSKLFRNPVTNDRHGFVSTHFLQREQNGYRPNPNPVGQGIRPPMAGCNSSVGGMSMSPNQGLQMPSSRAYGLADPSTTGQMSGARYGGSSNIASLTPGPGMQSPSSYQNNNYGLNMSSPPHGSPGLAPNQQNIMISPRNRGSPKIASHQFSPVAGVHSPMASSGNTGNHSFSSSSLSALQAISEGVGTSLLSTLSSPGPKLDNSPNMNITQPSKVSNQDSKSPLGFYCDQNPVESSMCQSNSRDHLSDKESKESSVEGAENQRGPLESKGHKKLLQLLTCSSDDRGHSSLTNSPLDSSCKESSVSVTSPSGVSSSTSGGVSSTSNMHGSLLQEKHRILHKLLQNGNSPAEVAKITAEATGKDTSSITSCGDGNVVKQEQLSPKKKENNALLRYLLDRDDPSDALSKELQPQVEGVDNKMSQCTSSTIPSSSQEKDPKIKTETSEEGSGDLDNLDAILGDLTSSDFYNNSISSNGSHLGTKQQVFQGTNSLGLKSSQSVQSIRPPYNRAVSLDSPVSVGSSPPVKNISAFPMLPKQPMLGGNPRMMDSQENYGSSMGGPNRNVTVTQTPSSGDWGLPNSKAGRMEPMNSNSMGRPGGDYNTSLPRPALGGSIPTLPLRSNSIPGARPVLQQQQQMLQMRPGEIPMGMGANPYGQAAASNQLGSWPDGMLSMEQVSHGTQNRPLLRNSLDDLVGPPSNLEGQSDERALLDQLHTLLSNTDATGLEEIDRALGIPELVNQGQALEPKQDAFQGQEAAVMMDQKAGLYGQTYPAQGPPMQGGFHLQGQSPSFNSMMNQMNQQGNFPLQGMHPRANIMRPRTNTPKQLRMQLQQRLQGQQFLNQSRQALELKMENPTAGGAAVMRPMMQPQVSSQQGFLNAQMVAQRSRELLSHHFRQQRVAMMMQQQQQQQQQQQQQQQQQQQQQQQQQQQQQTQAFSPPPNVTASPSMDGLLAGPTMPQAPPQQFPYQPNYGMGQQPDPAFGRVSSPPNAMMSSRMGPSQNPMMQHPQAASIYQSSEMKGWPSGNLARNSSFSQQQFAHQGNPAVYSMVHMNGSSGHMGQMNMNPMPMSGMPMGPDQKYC
DNA dC->dU-editing enzyme APOBEC-3A, sequence (P31941 whole entry): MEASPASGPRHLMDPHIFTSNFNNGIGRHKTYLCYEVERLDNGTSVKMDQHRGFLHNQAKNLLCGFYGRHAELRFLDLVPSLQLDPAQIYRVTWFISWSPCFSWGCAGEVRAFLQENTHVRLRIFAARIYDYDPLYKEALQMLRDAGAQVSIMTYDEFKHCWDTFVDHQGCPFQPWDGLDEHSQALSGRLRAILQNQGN

SMILES: CC(C)c1ccc(OCC(=O)NC(=S)Nc2ccc3c4c(cccc24)CC3)cc1
- EC50 [1]: > 79.4 µM (not active)
- EC50 [2]: > 79.4 µM (not active)
- EC50 [3]: > 79.4 µM (not active)

SMILES: CCOc1ccc(-n2cccc2C=O)cc1
- AC50 [4]: 7.29 µM (active)

SMILES: Cc1cc(NC(=O)c2cc(F)c(F)cc2Cl)no1
- AC50 [4]: 24 µM (active)

SMILES: Cn1c(/C=C/c2ccc(Br)cc2)c([N+](=O)[O-])c(=O)n(C)c1=O
- IC50 (HEK293 [5]): 4.31 µM (active)
- CC50 [6]: 21.9 µM (active)
- IC50 (HEK293 [7]): 14.3 µM (active)
- CC50 (Vero [8]): 12.1 µM (active)
- IC50 (HEK293 [9]): 4.87 µM (active)
- IC50 (Vero [10]): 23.9 µM (active)
- CC50 (Vero [11]): 16 µM (active)
- EC50 (HEK293 [12]): 14.4 µM (active)

SMILES: COc1ccc(NC2(c3ccc(Cl)cc3)C(=O)c3ccccc3C2=O)cc1
- IC50 [13]: > 100 µM (active)
- EC50 (Beta-galactosidase): > 40 µM (inactive)
- IC50 [14]: 17.9 µM (active)

SMILES: CCn1c(SCC(=O)Nc2ccc(Cl)cc2)nc2nc3c(cc2c1=O)CCCC3
- EC50 [1]: > 79.4 µM (not active)
- EC50 [2]: > 79.4 µM (not active)
- EC50 [3]: > 79.4 µM (not active)

SMILES: CC(C)(C)c1ccc2c(c1)OC(C(=O)N/N=C\c1ccc(-c3cccc(C(=O)O)c3)o1)CO2 (stereo not drawn)
- IC50 [15]: > 50 µM (active)

SMILES: Sc1nnc(-c2cccnc2)n1/N=C/c1cccs1
- IC50 [16]: > 100 µM (inactive)
- IC50 [17]: 58 µM (active)
- IC50 [18]: 2.75 µM (active)
